# Assay results from US11708413B2 (priority 2016, dated 2023).
# Where two headings read alike, the source gives them in different places.
# B1: anti-CD74 (antibody, V domains shown)
# VH: QVQLVESGGGVVQPGRSLRLSCAASGFNFSDYGMHWVRQAPGKGLEWVAVIWYDGSISYYADSVKGRFTISRDNSKNTLYLQMNSLRAEDTAVYYCARGGTVEHGAVYGTDVWGQGTTVTVSS
# VL: DIQMTQSPSSVSASVGDRVTITCRASQGIGSWLAWYQQKPGKAPKLLIYAADRLQSGVPSRFSGSGSGTDFTLTISSLQPEDFATYYCQQYHTYPLTFGGGTKVEIK
# What was measured:
# [1] = test system: JVM-13 (CLL) cells; test: cells; format: cell-based
# Method: (§1) Cell lines tested included B-lymphoma, multiple myeloma, and leukemia cells.
# (§2) Cytotoxicity effects of the free drug linkers and conjugates were measured with a cell proliferation assay. A total of 12500 cells in a volume of 25 μl were seeded in a 384-well flat bottom white polystyrene plate on the day of assay. Free drug-linkers and conjugates were formulated at 2× starting concentration (1000 nM for free drug linkers and 100 nM for ADCs) in RPMI medium and filtered through MultiScreen HTS 96-Well Filter Plates (Millipore). Filter sterilized samples were serial diluted (1:3) under sterile conditions and added into treatment wells. Plates were cultured at 37° C. in a CO2 incubator for 72 hrs. For cell viability measurement, 30 μl of Cell Titer-Glo® reagent (Promega Corp.) was added into each well, and plates processed as per product instructions. Relative luminescence was measured on an ENVISION® plate reader (Perkin-Elmer; Waltham, Mass.). Relative luminescence readings were converted to % viability using untreated cells as controls. Data was fitted with non-linear regression analysis, using log(inhibitor) vs. response, variable slope, 4 parameter fit equation using GraphPad Prism. Data was expressed as % relative cell viability vs. dose of free drug-linker or conjugate in nM.
# as §1
# [2] = test system: ARD (MM) cells; test: cells; format: cell-based
# Method: as §1, §2, §1
# [3] = test system: SUP-B15 (ALL) cells; test: cells; format: cell-based
# Method: as §1, §2, §1
# [4] = test system: BDCM (AML) cells; test: cells; format: cell-based
# Method: as §1, §2, §1
# [5] = test system: RPMI-6666 (HL) cells; test: cells; format: cell-based
# Method: as §1, §2, §1
# [6] = test system: RPMI-8226 (MM) cells; test: cells; format: cell-based
# Method: as §1, §2
# (§3) Each of Conjugates A-F was evaluated for the ability to bind and kill cells expressing CD74. Cell lines tested included B-lymphoma, multiple myeloma, and leukemia cells. Controls included unconjugated anti-CD74 antibody.
# [7] = test system: OPM-2 (MM) cells; test: Cell killing assay (cell proliferation, Cell Titer-Glo), OPM-2 (MM); format: cell-based; conditions: 72 hrs, NK = no killing
# Method: as §1, §2
# (§4) Each of Conjugates A-F was evaluated for the ability to bind and kill cells expressing CD74. […]
# [8] = test system: SU-DHL-6 (NHL) cells; test: cells; format: cell-based, human
# Method: as §1, §2, §1
# [9] = test system: ARP-1 (MM) cells; format: cell-based, human
# Method: as §1, §2, §1
# [10] = test system: K562 (CML) cells; test: Cell killing assay (cell proliferation, Cell Titer-Glo), K562 (CML); format: cell-based; conditions: 72 hrs, NK = no killing
# Method: as §1, §2, §4
# [11] = molecular target: T1, CD74 on RPMI-8226 (MM) cells (Homo sapiens, UniProt P04233); test: Cell binding assay (FACS), RPMI-8226 (MM); conditions: NB = no binding
# T1 construct: endogenous in cells; host or cells: RPMI-8226
# T1 sequence (P04233 1-296): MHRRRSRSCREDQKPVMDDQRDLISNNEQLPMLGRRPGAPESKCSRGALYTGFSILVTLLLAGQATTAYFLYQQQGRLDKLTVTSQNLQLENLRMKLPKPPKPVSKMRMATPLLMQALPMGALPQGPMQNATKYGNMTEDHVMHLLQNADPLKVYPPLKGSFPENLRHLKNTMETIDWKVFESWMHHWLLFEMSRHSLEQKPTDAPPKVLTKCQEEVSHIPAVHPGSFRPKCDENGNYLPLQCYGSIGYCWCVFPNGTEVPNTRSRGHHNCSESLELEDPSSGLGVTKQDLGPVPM
# Method: as §1
# (§5) Cell lines were maintained in RPMI, high glucose (Cellgro-Mediatech; Manassas, Va.) supplemented with 20% heat-inactivated fetal bovine serum (Hyclone; Thermo Scientific; Waltham, Mass.), 2 mM glutamax (Invitrogen; Carlsbad, Calif.) and 1×Pencillin/streptomycin (Cellgro-Mediatech; Manassas, Va.). Cells were harvested and re-suspended in FACS buffer (DPBS buffer supplemented with 1% bovine serum albumin). […] Cells were washed twice with ice-cold FACS buffer and incubated with 5 ug/ml Alexa 647 labeled donkey anti-human IgG antibody (Jackson Immune-Research) on ice for another 60 mins. Unstained cells and cells stained with secondary antibody alone were used as controls. Samples were then washed twice using FACS buffer and analyzed using a BD FACS Canto system. Mean fluorescence intensities were fitted using non-linear regression analysis with one site specific binding equation on GraphPad Prism. Data was expressed as geometric mean fluorescent intensity vs. antibody concentration in nM.
# as §3
# [12] = molecular target: T2, CD74 on JVM-13 (CLL) cells (Homo sapiens, UniProt P04233); test: Cell binding assay (FACS), JVM-13 (CLL); conditions: NB = no binding
# T2 construct: endogenous in cells; host or cells: RPMI-6666, SU-DHL-6, ARD, ARP-1, RPMI-8226, OPM-2, BDCM, SUP-B15, JVM-13, K562
# T2 sequence (P04233 1-296): T1 sequence (P04233 1-296)
# Method: as §1, §5, §3
# [13] = molecular target: T3, CD74 on SU-DHL-6 (NHL) cells (Homo sapiens, UniProt P04233); test: Cell binding assay (FACS), SU-DHL-6 (NHL); conditions: NB = no binding
# T3 construct: endogenous in cells; host or cells: SU-DHL-6
# T3 sequence (P04233 1-296): T1 sequence (P04233 1-296)
# Method: as §1, §5, §3
# [14] = molecular target: T4, CD74 on BDCM (AML) cells (Homo sapiens, UniProt P04233); test: Cell binding assay (FACS), BDCM (AML); conditions: NB = no binding
# T4 construct: endogenous in cells; host or cells: RPMI-6666, SU-DHL-6, ARD, ARP-1, RPMI-8226, OPM-2, BDCM, SUP-B15, JVM-13, K562
# T4 sequence (P04233 1-296): T1 sequence (P04233 1-296)
# Method: as §1, §5, §3
# [15] = molecular target: T5, CD74 on SUP-B15 (ALL) cells (Homo sapiens, UniProt P04233); test: Cell binding assay (FACS), SUP-B15 (ALL); conditions: NB = no binding
# T5 construct: endogenous in cells; host or cells: RPMI-6666, SU-DHL-6, ARD, ARP-1, RPMI-8226, OPM-2, BDCM, SUP-B15, JVM-13, K562
# T5 sequence (P04233 1-296): T1 sequence (P04233 1-296)
# Method: as §1, §5, §3
# [16] = molecular target: T6, CD74 on RPMI-6666 (HL) cells (Homo sapiens, UniProt P04233); test: Cell binding assay (FACS), RPMI-6666 (HL); conditions: NB = no binding
# T6 construct: endogenous in cells; host or cells: RPMI-6666, SU-DHL-6, ARD, ARP-1, RPMI-8226, OPM-2, BDCM, SUP-B15, JVM-13, K562
# T6 sequence (P04233 1-296): T1 sequence (P04233 1-296)
# Method: as §1, §5, §3
# [17] = molecular target: T7, CD74 on ARP-1 (MM) cells (Homo sapiens, UniProt P04233); test: Cell binding assay (FACS), ARP-1 (MM); conditions: geometric mean fluorescent intensity, NB = no binding
# T7 construct: endogenous in cells; host or cells: RPMI-6666, SU-DHL-6, ARD, ARP-1, RPMI-8226, OPM-2, BDCM, SUP-B15, JVM-13, K562
# T7 sequence (P04233 1-296): T1 sequence (P04233 1-296)
# Method: as §1
# as §5, with “Cells” for “Cell lines were maintained in RPMI, high glucose (Cellgro-Mediatech; Manassas, Va.) supplemented with 20% heat-inactivated fetal bovine serum (Hyclone; Thermo Scientific; Waltham, Mass.), 2 mM glutamax (Invitrogen; Carlsbad, Calif.) and 1×Pencillin/streptomycin (Cellgro-Mediatech; Manassas, Va.). Cells”
# as §1
# [18] = molecular target: T8, CD74 on ARD (MM) cells (Homo sapiens, UniProt P04233); test: Cell binding assay (FACS), ARD (MM); conditions: NB = no binding
# T8 construct: endogenous in cells; host or cells: RPMI-6666, SU-DHL-6, ARD, ARP-1, RPMI-8226, OPM-2, BDCM, SUP-B15, JVM-13, K562
# T8 sequence (P04233 1-296): T1 sequence (P04233 1-296)
# Method: as §1, §5, §3
# [19] = ARD (MM) cells, 72 hrs, Cell Titer-Glo, NK = no killing
# [20] = FACS, geometric mean fluorescent intensity
molecule,measurement,setting,value
COc1cc2cc(c1Cl)N(C)C(=O)C[C@H](OC(=O)[C@H](C)N(C)C(=O)CCCC(=O)N(C)CCOCCOCCOCCOCc1cn(C)nn1)[C@]1(C)O[C@H]1[C@H](C)[C@@H]1C[C@@](O)(NC(=O)O1)[C@H](OC)/C=C/C=C(/C)C2 [Conjugate B],IC50,[1]; 72 h,2 nM
same,Cell Killing Activity Span,"[1]; JVM-13 (CLL) cells, 72 hrs, Cell Titer-Glo, NK = no killing",69%
same,IC50,[2]; 72 h,31 nM
same,Cell Killing Activity Span,[2]; [19],53%
same,IC50,[3]; 72 h,5.7 nM
same,Cell Killing Activity Span,"[3]; SUP-B15 (ALL) cells, 72 hrs, Cell Titer-Glo, NK = no killing",72%
same,IC50,[4]; 72 h,15 nM
same,Cell Killing Activity Span,"[4]; BDCM (AML) cells, 72 hrs, Cell Titer-Glo, NK = no killing",95%
same,IC50,[5]; 72 h,1.3 nM
same,Cell Killing Activity Span,"[5]; RPMI-6666 (HL) cells, 72 hrs, Cell Titer-Glo, NK = no killing",89%
same,IC50,[6]; 72 h,51 nM
same,Cell Killing Activity Span,"[6]; RPMI-8226 (MM) cells, 72 hrs, Cell Titer-Glo, NK = no killing",41%
same,IC50,[7],> 50 nM
same,IC50,[8]; 72 h,1.3 nM
same,Cell Killing Activity Span,"[8]; SU-DHL-6 (NHL) cells, 72 hrs, Cell Titer-Glo, NK = no killing",98%
same,IC50,[9]; 72 h,16 nM
same,Cell Killing Activity Span,"[9]; ARP-1 (MM) cells, 72 hrs, Cell Titer-Glo, NK = no killing",82%
same,IC50,[10],> 50 nM
"COc1cc2cc(c1Cl)N(C)C(=O)C[C@H](OC(=O)[C@H](C)N(C)C(=O)CCCC(=O)N(C)CCOCCOCCOCCOCCC(=O)NCCC(=O)N1Cc3ccccc3C#Cc3ccccc31)[C@]1(C)O[C@H]1[C@H](C)[C@@H]1C[C@@](O)(NC(=O)O1)[C@H](OC)/C=C/C=C(/C)C2 [Free Linker-Drug, DBCO-PEG4-maytansine, reference compound]",IC50,"[1]; JVM13, JVM-13 (CLL) cells, 72 hrs, Cell Titer-Glo, NK = no killing, read-out: Cell Killing Activity IC50",25 nM
same,Cell Killing Activity Span,[2]; [19],40%
same,IC50,"[2]; ARD (MM) cells, 72 hrs, Cell Titer-Glo, NK = no killing, read-out: Cell Killing Activity IC50",~34 nM
same,IC50,"[3]; Homo sapiens, SUP-B15 (ALL) cells, 72 hrs, Cell Titer-Glo, NK = no killing, read-out: Cell Killing Activity IC50",11 nM
same,IC50,"[4]; BDCM (AML) cells, 72 hrs, Cell Titer-Glo, NK = no killing, read-out: Cell Killing Activity IC50",13 nM
same,IC50,"[5]; Homo sapiens, RPMI-6666 (HL) cells, 72 hrs, Cell Titer-Glo, NK = no killing, read-out: Cell Killing Activity IC50",~13 nM
same,IC50,"[6]; Homo sapiens, RPMI-8226 (MM) cells, 72 hrs, Cell Titer-Glo, NK = no killing, read-out: Cell Killing Activity IC50",18 nM
same,IC50,[7]; Homo sapiens,24 nM
same,IC50,"[8]; Homo sapiens, SU-DHL-6 (NHL) cells, 72 hrs, Cell Titer-Glo, NK = no killing, read-out: Cell Killing Activity IC50",15 nM
same,IC50,[10]; Homo sapiens,60 nM
B1,Bmax,[11]; [20],119
same,Kd,[11]; cell binding,3.6 nM
same,Bmax,[12]; [20],447
same,Kd,[12]; cell binding,2.5 nM
same,Bmax,[13]; [20],1565
same,Kd,[13]; cell binding,2 nM
same,Bmax,[14]; [20],3059
same,Kd,[14]; cell binding,4.5 nM
same,Bmax,[15]; [20],680
same,Kd,[15]; cell binding,3.5 nM
same,Bmax,[16]; [20],3879
same,Kd,[16]; cell binding,2.3 nM
same,Bmax,[17],341
same,Bmax,[18]; [20],190
same,Kd,[18]; cell binding,2.6 nM
